# In US20200407717A1, “METHODS OF MODULATING ANTISENSE ACTIVITY” (Ionis Pharmaceuticals, Inc., priority 2018, published 2020):
# In the oligonucleotide strings, read from the 5' end, every base follows the letter of its sugar. An asterisk marks phosphorothioate; unmarked linkages are phosphodiester. Other units and linkages are bracketed, terminal groups are in braces. A string of capitals states the bases alone. e = 2'-O-(2-methoxyethyl) (MOE); {AF594} = Alexa Fluor 594 dye; k = constrained ethyl (cEt); {FITC} = fluorescein label; [5mC] = 5-methylcytosine; d = 2'-deoxy (DNA)
# Legend:
# [1] = molecular target: T1, EGFR (Homo sapiens, UniProt P00533); experiment: Direct NanoBRET binding assay; design: made in house; host or cells: HEK293 cells; conditions: Direct BRET, AF594-labeled oligonucleotide 0.1-10,000 nM
# Method: (§1) NanoBRET (bioluminescence resonance energy transfer) binding assays were performed as described in Vickers and Crooke. PLOS One, 11(8), (2016). An EGFR NLuc construct was prepared by first amplifying human EGFR from the full length cDNA clone (Origene RC217223) with forward PCR primer 5′-[…]-3′ (SEQ ID NO: 1) and reverse PCR primer 5′-[…] (SEQ ID NO: 2). The amplified product was ligated into the NheI and XhoI sites of the NanoLuc expression vector pFC32K Nluc CMV-Neo (Promega). Protein was expressed in HEK293 cells and isolated using Protein G magnetic beads. For competitive BRET, the Alexafluor594-labeled modified oligonucleotide 766636 was diluted into water in opaque white 96-well plates at 10 nM and competed with 0.1-10,000 nM of unlabeled modified oligonucleotide. […] of 2× binding buffer containing […] (relative luminescence units) beads/well was added and plates were shaken for 10 minutes at room temperature. Nanoluciferase activity and BRET were measured in a Glowmax Discover plate reader and EC50 values, shown in the tables below, were calculated using GraphPad Prism. For direct BRET, Alexafluor594 modified nucleotides were diluted at 0.1-10,000 nM and experiments were performed as described above.
# [2] = test system: EGF-EGFR signaling; experiment: EGFR signaling western blot (p-EGFR, p-ERK), A431 cells; format: cell-based; conditions: for EGFR signaling: 2 μM for 16 hours
# Method: In order to test the effects of a PS-ASO on EGFR signaling, A431 cells were incubated with compound no. 116847 or no PS-ASO compound for 16 hours. All cells were then treated with EGF prior to being subjected to the pulse-chase protocol described above. Cell lysates were run on a SDS-PAGE gel and analyzed by sequential western blot for phosphorylated EGFR (P-EGFR), total EGFR (T-EGFR), phosphorylated ERK (P-ERK), and total ERK (T-ERK) using the antibodies described above for EGFR, 4370 for P-ERK (Cell Signaling Technology), and 4695 for T-ERK (Cell Signaling Technology).
# 110080, 25690, 25699, 395251, or 395254 at 2 μM for 16 hours prior to carrying out the pulse-chase experiment described above.
# [3] = molecular target: T1, EGFR; experiment: Pull-down assay in the presence of EGF; format: binding; design: endogenous in cells; host or cells: A431 cells
# Method: A431 cells were treated with 100 ng/mL, 200 ng/mL, or 400 ng/mL EGF and then lysed. The cell lysates were mixed with beads bound to compound no. 451104, as prepared as in Example 1. Proteins were eluted with compound no. 116847 and run on a SDS-PAGE followed by western blot, as in Example 1. The same membrane was sequentially blotted for total EGFR (T-EGFR), phosphorylated EGFR (P-EGFR, ab205827, Abcam), nucleolin (ab22758, Abcam), and TCP1β. […] 451104 to EGFR.
# In a similar experiment in which EGF was added after cell lysis, A431 cells were lysed and mixed with beads bound to compound no. 451104. Varying concentrations of EGF were added during the elution step with compound no. 116847.
# [4] = molecular target: T1, EGFR; experiment: Competitive NanoBRET binding assay; design: made in house; host or cells: HEK293 cells; conditions: Competitive BRET vs 10 nM AF594-labeled 766636
# Method: as §1
# [5] = molecular target: T1, EGFR; experiment: Competitive BRET in absence or presence of exogenous EGF; format: binding; design: made in house; host or cells: HEK293 cells
# Method: as §1
# The binding affinities for EGFR of PS-ASOs with various sugar modifications were measured with competitive BRET, as described in Example 1. 10 nM compound no. […]
# [6] = test system: EGFR; experiment: Pulse-chase EGFR synthesis and degradation, A431 cells; format: cell-based
# Method: In order to test the effects of a PS-ASO on EGFR synthesis and degradation, A431 cells were incubated with either compound no. 116847 or no PS-ASO compound for 16 hours. A pulse-chase protocol was then performed in which the cells were incubated for 20 minutes in cysteine and methionine free media followed by incubation with [^35S]-Met and [^35S]-Cys in order to analyze newly synthesized protein. Cell samples were collected in RIPA buffer after 50 minutes (FIG. 6A) or at the times indicated in the tables below, and cell lysates were immunoprecipitated with EGFR antibody or s100a10 antibody (610071, BD Bioscience). The resulting, labeled immunocomplexes were resolved by SDS-PAGE and visualized by autoradiography using phosphoimager. FIG. 6A and Table 13 show the levels of nascent EGFR protein and nascent s100a10, a control protein. […] 116847 relative to cells that were not incubated with an ASO.
# [7] = molecular target: T1, EGFR; experiment: Membrane binding assay, EGFR; design: purchased ThermoFisher PV3872; conditions: EGFR 5 nM to 150 nM
# Method: (§2) A membrane binding assay was performed to test the binding affinities of modified oligonucleotides to EGF and EGFR. Purified recombinant EGF (PHG0311L, ThermoFisher) or EGFR protein (PV3872, ThermoFisher) were incubated with FITC-labeled phosphorothioate oligonucleotide, compound no. 256903 or FITC-labeled phosphate oligonucleotide, PO-ASO, in binding buffer (20 mM Tris-HCl, pH 7.5, 150 mM NaCl, 1 mM DTT, 10% glycerol) for 1 hr at 37° C. Each reaction contained purified EGF at 3 nM to 3 μM or recombinant EGFR at 5 nM to 150 nM. Samples were loaded onto a hyband ECL nitrocellulose membrane (GE Healthcare) and soaked in wash buffer (20 mM Tris-HcCl, pH 7.5, 250 mM NaCl). Protein-bound ASOs were transferred to the membrane by applying a vaccum in a 96-well Bio-Rad Bio-Dot apparatus. After washing, membranes were air-dried and scanned using a phoshoimager (GE Healthcare). Kds were calculated for compound no. 256903 using Prism. The results below represent an average of three replicate experiments. […] In contrast, compound no. 256903 bound to both EGF and EGFR, with a higher affinity for EGFR than for EGF.
# [8] = molecular target: T2, Purified recombinant EGF (Homo sapiens, UniProt P01133); experiment: Membrane binding assay, EGF; conditions: EGF 3 nM to 3 μM
# T2 construct: purchased ThermoFisher PHG0311L
# Method: as §2
# T2 sequence (P01133 971-1023 limits assumed): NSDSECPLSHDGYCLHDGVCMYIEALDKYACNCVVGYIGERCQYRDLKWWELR
substance,measurement,setting,value
"AF594-GksGksTks^mCdsGdsAds^mCds^mCdsGdsAdsAdsGdsTds^mCksAksTk (antisense GGTCGACCGAAGTCAT; 5'-AF594 label, cEt/MOE, 5-methylC, phosphorothioate, chemistry not fully specified) [compound 1024788]",EC50,[1],525 nM
AF594-GksGks^mCdsTdsAds^mCdsTdsAds^mCdsGds^mCds^mCdsGdsTks^mCksAk (antisense {AF594}-kG*kG*d[5mC]*dT*dA*d[5mC]*dT*dA*d[5mC]*dG*d[5mC]*d[5mC]*dG*kT*k[5mC]*kA) [compound 936533],EC50,[1],551 nM
AF594-Gks^mCksAksTdsGdsTdsTds^mCdsTds^mCddsAds^mCdsAdsTksTksAk (antisense {AF594}-kG*k[5mC]*kA*dT*dG*dT*dT*d[5mC]*dT*d[5mC]*dA*d[5mC]*dA*kT*kT*kA) [compound 1055615],EC50,[1],746 nM
AF594-^mCes^mCesTesTes^mCes^mCds^mCdsTdsGdsAdsAdsGdsGdsTdsTds^mCes^mCesTes^mCes^mCe (antisense {AF594}-e[5mC]*e[5mC]*eT*eT*e[5mC]*d[5mC]*d[5mC]*dT*dG*dA*dA*dG*dG*dT*dT*e[5mC]*e[5mC]*eT*e[5mC]*e[5mC]) [compound 1024789],EC50,[1],202 nM
AesGesTes^mCesTesAdsGdsGdsGdsTds^mCdsAds^mCdsAdsAdsTes^mCesTesGesGe (antisense eA*eG*eT*e[5mC]*eT*dA*dG*dG*dG*dT*d[5mC]*dA*d[5mC]*dA*dA*eT*e[5mC]*eT*eG*eG) [compound 25699],EGFR signaling,[2],not be impacted
Biotin-TEG-^mCesTesGes^mCesTesAdsGds^mCds^mCdsTds^mCds^ioUdsGdsGdsAdsTesTGesTesGesAe [compound 451104],competition by exogenous EGF for binding to EGFR,"[3]; A431 cells treated with 100, 200 or 400 ng/mL EGF, then lysed",did not compete
same,"recovery of EGFR, nucleolin, or TCP1β from the beads on direct addition of EGF",[3]; EGF added to cell lysates during elution,did not significantly alter
"CTGCTAGCCTCTGGATTTGA (sugars from the 5' end e5 d10 e5, all phosphorothioate, methylation of C not given here) [compound 116847, 5-10-5 2′-MOE gapmer, phosphorothioate]",EC50,[4]; Table 5,181 nM
same,EC50,[4]; Table 6,1660 nM
same,EGF-EGFR signaling,"[2]; 16 hours incubation, then EGF",not affected
same,p-EGFR (%),[2]; Time 0.5 hr,89%
same,p-ERK (%),[2]; Time 0.5 hr,102%
same,p-EGFR (%),[2]; Time 1 hr,76%
same,p-ERK (%),[2]; Time 1 hr,94%
same,p-EGFR (%),[2]; Time 2 hr,85%
same,p-ERK (%),[2]; Time 2 hr,85%
same,p-EGFR (%),[2]; Time 4 hr,55%
same,p-ERK (%),[2]; Time 4 hr,87%
same,Bret Ratio (% Max),"[5]; 0.01 nM, EGF added 0",15.0 % Max
same,Bret Ratio (% Max),"[5]; 0.01 nM, EGF added 100 ng/mL",13.3 % Max
same,Bret Ratio (% Max),"[5]; 0.03 nM, EGF added 0",15.4 % Max
same,Bret Ratio (% Max),"[5]; 0.03 nM, EGF added 100 ng/mL",12.4 % Max
same,Bret Ratio (% Max),"[5]; 0.1 nM, EGF added 0",16.2 % Max
same,Bret Ratio (% Max),"[5]; 0.1 nM, EGF added 100 ng/mL",13.2 % Max
same,Bret Ratio (% Max),"[5]; 0.30 nM, EGF added 0",19.6 % Max
same,Bret Ratio (% Max),"[5]; 0.30 nM, EGF added 100 ng/mL",15.1 % Max
same,Bret Ratio (% Max),"[5]; 1.0 nM, EGF added 0",26.1 % Max
same,Bret Ratio (% Max),"[5]; 1.0 nM, EGF added 100 ng/mL",18.0 % Max
same,Bret Ratio (% Max),"[5]; 3.0 nM, EGF added 0",32.6 % Max
same,Bret Ratio (% Max),"[5]; 3.0 nM, EGF added 100 ng/mL",24.2 % Max
same,Bret Ratio (% Max),"[5]; 10.0 nM, EGF added 0",41.8 % Max
same,Bret Ratio (% Max),"[5]; 10.0 nM, EGF added 100 ng/mL",30.7 % Max
same,Bret Ratio (% Max),"[5]; 30.0 nM, EGF added 0",52.8 % Max
same,Bret Ratio (% Max),"[5]; 30.0 nM, EGF added 100 ng/mL",39.7 % Max
same,Bret Ratio (% Max),"[5]; 100 nM, EGF added 0",64.1 % Max
same,Bret Ratio (% Max),"[5]; 100 nM, EGF added 100 ng/mL",54.7 % Max
same,Bret Ratio (% Max),"[5]; 300 nM, EGF added 0",70.8 % Max
same,Bret Ratio (% Max),"[5]; 300 nM, EGF added 100 ng/mL",63.8 % Max
same,Bret Ratio (% Max),"[5]; 1000 nM, EGF added 0",82.9 % Max
same,Bret Ratio (% Max),"[5]; 1000 nM, EGF added 100 ng/mL",77.4 % Max
same,Bret Ratio (% Max),"[5]; 3000 nM, EGF added 0",99.5 % Max
same,Bret Ratio (% Max),"[5]; 3000 nM, EGF added 100 ng/mL",94.2 % Max
same,EGFR synthesis and degradation,"[6]; 16 hours incubation, relative to cells not incubated with an ASO",unchanged
same,Relative Abundance of EGFR (%),[6]; Time 0 hr,103%
same,Relative Abundance of EGFR (%),[6]; Time 4 hr,91%
same,Relative Abundance of EGFR (%),[6]; Time 16 hr,69%
same,Relative Abundance of EGFR (%),[6]; Time 24 hr,54%
"FITC-^mCeoTeoGeo^mCeoTeoAdoGdo^mCds^mCdoTdo^mCdoTdoGdoGdoAdoTeoTeoTeoGeoAe (antisense {FITC}-e[5mC]eTeGe[5mC]eTdAdGd[5mC]*d[5mC]dTd[5mC]dTdGdGdAeTeTeTeGeA) [PO-ASO, FITC-labeled phosphate oligonucleotide]",interaction with EGFR,[7],did not appreciably interact
same,interaction with EGF,[8],did not appreciably interact
^mCesGesTes^mCesGesTds^mCdsGdsTds^mCdsAdsTds^mCds^mCdsTds^mCesGesTes^mCes^mCe (antisense e[5mC]*eG*eT*e[5mC]*eG*dT*d[5mC]*dG*dT*d[5mC]*dA*dT*d[5mC]*d[5mC]*dT*e[5mC]*eG*eT*e[5mC]*e[5mC]) [compound 110080],EGFR signaling,[2],not be impacted
^mCes^mCesAesGesGes^mCdsTdsGdsGdsTdsTdsAdsTdsGdsAds^mCesTes^mCesAesGe (antisense e[5mC]*e[5mC]*eA*eG*eG*d[5mC]*dT*dG*dG*dT*dT*dA*dT*dG*dA*e[5mC]*eT*e[5mC]*eA*eG) [compound 395251],EGFR signaling,[2],not be impacted
